Series [1] concerns MDA-MB-231. Kind of series: Cell cycle studies (PI-DNA flow cytometry) in MDA-MB-231. Conditions: MDA-MB-231, 20 nM, 72 h. In kind it is cell-based, human. The method, then: To investigate cell cycle progression in the presence of compound (1s) or paclitaxel (Santa Cruz Biotechnology; #sc-201439), we quantified the DNA content in the cell. On day 1, the cells were seeded in 1 mL into a 24 well plate (Greiner; #662160). On day 2, MDA-MB-468-UnaG were pre-treated either without (normoxia) or with 100 µM CoCl2 (hypoxia) (Sigma-Aldrich; #C8661) for 24 h before compounds were applied. On day 2 for MDA-MB-231 or on day 3 for MDA-MB-468-UnaG, paclitaxel was applied at the concentrations 15 nM, 37 nM, and 100 nM, and compound (1s) was applied at concentrations ranging from 2 nM to 1000 nM. […] The fluorescence signal resulting from PI-DNA complex formation was recorded using the flow cytometer CytoFlex (Beckmann Coulter, Krefeld, Germany). The cell cycle phase population was determined based on the DNA content in a set of chromosomes (n) in a cell using the integrated software CytExpert (Beckmann Coulter): sub-G0/G1 (<2n), G0/G1 (2n), S (>2n, <4n), G2/M (4n) or hyperploid cells (>4n) (see Figure S10).
FSC-A and FSC-height (H). (c) To evaluate cell cycles phases, the range of analyzed cells was deter-mined within the (b) single cells by excluding recorded events that extend the proportional distri-bution of the DNA chromosome set (n): < 2n; > 4n. […]

A further series has as its system CAFs. Briefly: 2D cell viability in CAFs. The class given is cell-based, murine. Conditions: Mus musculus, 24 h, read-out: Reduction of Cell Viability 24 h IC50 in CAFs. The method, then: Table S1 IC50-values for reduction of cell viability determined in CAFs.
Compound Cell Viability 1
1 Cell viability of CAFs was determined 24 h post-treatment with the 2D cell viability assay. CAFs were seeded at a cell density of 2.5 × 10^3 cells per well. Compound concentration was applied in triplicates in a four-fold serial dilution starting at 1000 nM. 2 Duration of treatment. 3 Mean ± SD […]
50 µM. 4 Mean ± SD (n = 3). 5 Mean ± SD (n = 2).

The test system of the next series is NFκB. Briefly: NFκB inhibition assay (2 h), NFκB-dependent nanoluc luciferase reporter. As to conditions: read-out: NFκB Inhibition 2 h IC50; NFκB-MDA-MB-231-nanoluc cells, 2-h treatment, mean ± SD. The class given is cell-based, human. The method, then:
Experiments were performed according to the published protocol. On day 1, 4 × 10^4 NFκB-MDA-MB-231-nanoluc cells were seeded into white 96 well plates (Greiner; #655098). On day 2, the medium was replaced with starvation medium and the cells were pre-incubated for 20 min with either 100 µL of DMSO (Roth; #A994.1) alone at a concentration of maximal 0.1% or with the final concentration of the diluted compounds (Table 3). To activate NFκB signaling, cells were stimulated with 1 µg/mL LPS (Sigma-Aldrich; #L2630) beforehand. NFκB-dependent luciferase activity was measured according to the manufacturer`s protocol for the Nano-Glo Luciferase Assay System (Promega, Mannheim, Germany; #N1110). NFκB-dependent luminescence was determined as relative light units (RLU) using the microplate reader Spark® (Tecan, Männedorf, Switzerland).
Background: A reporter such as luciferase makes a cellular process visible.

For series [2], the system named is MDA-MB-231. Briefly: 2D cell viability (PrestoBlue resazurin) in MDA-MB-231. In kind it is cell-based, human. As to conditions: read-out: Reduction of Cell Viability 24 h IC50; MDA-MB-231 2D monolayer, 24 h post-treatment, mean ± SD. The method, then:
Cell viability was determined based on resazurin-reduction in viable cells according to the PrestoBlue^TM Assay. On day 1, MDA-MB-231 (1.5 × 10^4 cells per well or 7.5 × 10^3 cells per well) were seeded into black 96 well plates (Greiner; #655090) in a total volume of 100 µL. On day 2, the compounds or DMSO (Roth; #A994.1) alone at maximal 0.1% were applied (final concentrations after serial dilution shown in Table 3). An amount of 20 µM staurosporine (Sigma-Aldrich; #S5921) served as a positive control. On day 3, the PrestoBlue^TM reagent (Invitrogen^TM, Darmstadt, Germany; #A13262) was applied according to the manufacturer`s instructions. Finally, cell viability-dependent fluorescence was recorded in relative fluorescence units (RFU) with excitation/emission (Exλ/Emλ) at 535/590 nm or 560/590 nm, using the microplate reader Spark® (Tecan).
(Resazurin is reduced to fluorescent resorufin, in cell work by metabolically active cells.)

Series [3] deals with 3D co-culture spheroids of MDA-MB-231 and primary murine CAFs. Briefly: 3D cell viability (ATP content) in TNBC co-culture spheroids. The class given is cell-based, human MDA-MB-231. The method, then:
On day 1, 3000 cells were seeded into a low-attachment 96 well plate (Greiner; #650970). […] Cell viability was determined based on the ATP content in viable cells according to the manufacturer`s instructions (Promega #G9682). Co-culture spheroids were generated for 72 h before they were grown for another 72 h with or without exposure to the compounds. […] Cell viability-dependent luminescence was determined as relative light units (RLU) using the microplate reader Spark® (Tecan).

The test system of the next series is MDA-MB-468-UnaG. Kind of series: 2D cell viability in MDA-MB-468-UnaG under normoxia or CoCl2-simulated hypoxia.

Where two headings read alike, the source gives them in different places.

The values below come from article PMC9499467, “Phenanthroindolizidine Alkaloids Isolated from Tylophora ovata as Potent Inhibitors of Inflammation, Spheroid Growth, and Invasion of Triple-Negative Breast Cancer” (International Journal of Molecular Sciences, 2022).

The IC50 is the concentration at which inhibition is half-maximal. Take `COc1ccc2c3c(c4cc(OC)c(OC)cc4c2c1)CN1CCCC1C3O` (centres unmarked) [Compound (1), O-methyltylophorinidine]: the “cell cycle phase population” value in the series on MDA-MB-231 [1] is “Cell populations increased in the S-phase as well as in the G2/M phase”. Further, the 50% inhibitory concentration (IC50) in the series with CAFs was 2.7 ± 0.9 nM; with NFκB, 17.1 ± 2 nM; in the series with MDA-MB-231 [2], 13.6 ± 0.4 nM; in series [3] (read-out: Reduction of Cell Viability 72 h IC50, 3D co-culture spheroids, 72 h treatment, mean ± SD (n = 3)) it was 21.7 ± 2.5 nM.
In the case of `COc1ccc2c3c(c4cc(OC)c(OC)cc4c2c1)CN1CCCC1C3O` (centres unmarked) [Compound (1s), O-methyltylophorinidine], the IC50 with MDA-MB-468-UnaG (24 h, read-out: cell viability IC50, hypoxia) was 6.5 nM; in the series on MDA-MB-468-UnaG (read-out: cell viability IC50, normoxia) it was 6.7 nM; with NFκB, 3.3 ± 0.2 nM; in the series with MDA-MB-231 [2] it was 4.2 ± 1 nM; in series [3] (Mus musculus, MDA-MB-231, 72 h, read-out: Reduction of Cell Viability 72 h IC50, 3D co-culture spheroids, 72 h treatment, mean ± SD (n = 3)), 11.2 ± 2.1 nM. For the same compound, the “decrease of cytotoxic effects by hypoxia (factor)” value in the series with MDA-MB-468-UnaG (hypoxia vs normoxia, MDA-MB-468-UnaG) was “barely affected”.
